Results reported in ChEMBL document CHEMBL4011606, “Synthesis and antiplasmodial activity of novel indoleamide derivatives bearing sulfonamide and triazole pharmacophores” (Eur J Med Chem, 2017).

Experiments:
[1] = Selectivity index, ratio of CC50 for African green monkey Vero cells to IC50 for chloroquine-sensitive Plasmodium falciparum 3D7; format: toxicity; conditions: read-out: Ratio CC50/IC50
[2] = Resistance index, ratio of IC50 for chloroquine-resistant Plasmodium falciparum K1 to IC50 for chloroquine-sensitive Plasmodium falciparum 3D7; format: functional
[3] = system: Plasmodium falciparum; experiment: Antiplasmodial activity against chloroquine-sensitive Plasmodium falciparum 3D7 infected in human erythrocytes measured after 72 hrs by SYBR green 1 dye based fluorescence assay; format: functional, cell-based; conditions: 3D7, 72 h
[4] = Cytotoxicity against African green monkey Vero cells measured after 3 days by resazurin dye based fluorescence assay; format: cell-based; conditions: chlorocebus sabaeus
[5] = system: Plasmodium falciparum; experiment: Antiplasmodial activity against chloroquine-resistant Plasmodium falciparum K1 infected in human erythrocytes measured after 72 hrs by SYBR green 1 dye based fluorescence assay; format: functional, cell-based; conditions: K1, 72 h
[6] = Selectivity index, ratio of CC50 for African green monkey Vero cells to IC50 for chloroquine-resistant Plasmodium falciparum K1; format: toxicity; conditions: read-out: Ratio CC50/IC50

| SMILES | selectivity ratio [1] | Ratio IC50 [2] | IC50 [3] [µM] | CC50 at 72 h [4] [µM] | IC50 [5] [µM] | selectivity ratio [6] |
| --- | --- | --- | --- | --- | --- | --- |
| O=C(CCCc1cn(S(=O)(=O)c2ccc(F)cc2)c2ccccc12)NC12CC3CC(CC(C3)C1)C2 | > 85 | 1.26 | 2.94 | > 250 | 3.73 | > 67 |
| Cc1ccc(S(=O)(=O)n2cc(CCCC(=O)NC3CCCCCC3)c3ccccc32)cc1 | > 73 | 0.96 | 3.38 | > 250 | 3.27 | > 76 |
